# In ChEMBL document CHEMBL1201862, “PubChem BioAssay data set” (2004):
#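 A five-concentration, 48-hour dose response in 96-well plates underlies each endpoint, interpolated linearly between surrounding concentrations. GI50 = concentration required for 50% inhibition of growth.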 Calls of active or inactive are those of the source. Rule as the data show it: active = GI50 up to about 1.1 µM and inactive = higher.
# Experiments:
# Assay in all cases: DTP human tumour cell line panel, 48 h
# 786-0 = test system: 786-0
# U-251 = test system: U-251
# SR = test system: SR
# HCC 2998 = test system: HCC 2998
# SK-MEL-28 = test system: SK-MEL-28
# CCRF-CEM = test system: CCRF-CEM
# SF-295 = test system: SF-295
# DLD-1 = test system: DLD-1
# HCT-116 = test system: HCT-116
# SNB-19 = test system: SNB-19
# MOLT-4 = test system: MOLT-4
# RXF 393 = test system: RXF 393
# DMS-273 = test system: DMS-273
# Malme-3M = test system: Malme-3M
# RPMI-8226 = test system: RPMI-8226
# SN12C = test system: SN12C
# SK-OV-3 = test system: SK-OV-3
# M19-MEL = test system: M19-MEL
# COLO 205 = test system: COLO 205
# IGROV-1 = test system: IGROV-1
# A498 = test system: A498
# HOP-92 = test system: HOP-92
# UO-31 = test system: UO-31
# NCI-H522 = test system: NCI-H522
# NCI-H226 = test system: NCI-H226
# SNB-75 = test system: SNB-75
# DMS-114 = test system: DMS-114
# HL-60 = test system: HL-60
# SNB-78 = test system: SNB-78
# KM-20L2 = test system: KM-20L2
# NCI-H23 = test system: NCI-H23
# EKVX = test system: EKVX
# A549 = test system: A549
# SK-MEL-5 = test system: SK-MEL-5
# UACC-257 = test system: UACC-257
# LXFL 529 = test system: LXFL 529
# M14 = test system: M14
# K562 = test system: K562
# SF-268 = test system: SF-268
# OVCAR-8 = test system: OVCAR-8
# OVCAR-4 = test system: OVCAR-4
# HCT-15 = test system: HCT-15
# XF498 = test system: XF498
# SW-620 = test system: SW-620
# HOP-18 = test system: HOP-18
# HT-29 = test system: HT-29
# UACC-62 = test system: UACC-62
# ACHN = test system: ACHN
# HOP-62 = test system: HOP-62
# SF-539 = test system: SF-539
# CAKI-1 = test system: CAKI-1
# OVCAR-5 = test system: OVCAR-5
# LOX IMVI = test system: LOX IMVI
# NCI-H460 = test system: NCI-H460
# KM12 = test system: KM12
# OVCAR-3 = test system: OVCAR-3
# TK-10 = test system: TK-10
# SK-MEL-2 = test system: SK-MEL-2
compound,measurement,setting,value
O=C1c2ccccc2N2OC3(N4CCCC4)CCCC3C12c1ccccc1 (configuration not stated),GI50,786-0,> 100 µM (inactive)
same,GI50,U-251,> 100 µM (inactive)
same,GI50,SR,59.4 µM (inactive)
same,GI50,HCC 2998,> 100 µM (inactive)
same,GI50,SK-MEL-28,> 100 µM (inactive)
same,GI50,CCRF-CEM,> 100 µM (inactive)
same,GI50,SF-295,86.1 µM (inactive)
same,GI50,DLD-1,> 100 µM (inactive)
same,GI50,HCT-116,73.3 µM (inactive)
same,GI50,SNB-19,> 100 µM (inactive)
same,GI50,MOLT-4,49.9 µM (inactive)
same,GI50,RXF 393,> 100 µM (inactive)
same,GI50,DMS-273,67.6 µM (inactive)
same,GI50,Malme-3M,> 100 µM (inactive)
same,GI50,RPMI-8226,62.8 µM (inactive)
same,GI50,SN12C,> 100 µM (inactive)
same,GI50,SK-OV-3,> 100 µM (inactive)
same,GI50,M19-MEL,> 100 µM (inactive)
same,GI50,COLO 205,> 100 µM (inactive)
same,GI50,IGROV-1,> 100 µM (inactive)
same,GI50,A498,> 100 µM (inactive)
same,GI50,HOP-92,34.8 µM (inactive)
same,GI50,UO-31,> 100 µM (inactive)
same,GI50,NCI-H522,> 100 µM (inactive)
same,GI50,NCI-H226,> 100 µM (inactive)
same,GI50,SNB-75,> 100 µM (inactive)
same,GI50,DMS-114,83.4 µM (inactive)
same,GI50,HL-60,43.3 µM (inactive)
same,GI50,SNB-78,> 100 µM (inactive)
same,GI50,KM-20L2,> 100 µM (inactive)
same,GI50,NCI-H23,> 100 µM (inactive)
same,GI50,EKVX,> 100 µM (inactive)
same,GI50,A549,68.5 µM (inactive)
same,GI50,SK-MEL-5,61.4 µM (inactive)
same,GI50,UACC-257,71.6 µM (inactive)
same,GI50,LXFL 529,67.8 µM (inactive)
same,GI50,M14,> 100 µM (inactive)
same,GI50,K562,76.6 µM (inactive)
same,GI50,SF-268,> 100 µM (inactive)
same,GI50,OVCAR-8,> 100 µM (inactive)
same,GI50,OVCAR-4,29.6 µM (inactive)
same,GI50,HCT-15,> 100 µM
same,GI50,XF498,92.3 µM (inactive)
same,GI50,SW-620,> 100 µM (inactive)
same,GI50,HOP-18,> 100 µM (inactive)
same,GI50,HT-29,> 100 µM (inactive)
same,GI50,UACC-62,74.3 µM (inactive)
same,GI50,ACHN,> 100 µM (inactive)
same,GI50,HOP-62,> 100 µM (inactive)
same,GI50,SF-539,> 100 µM (inactive)
CCCc1c(C(=O)OCC)[nH]c(-c2ccc(-c3[nH]c(C(=O)OCC)c(CCC)c3C(=O)OCC)o2)c1C(=O)OCC,GI50,786-0,> 100 µM (inactive)
same,GI50,U-251,> 100 µM (inactive)
same,GI50,CAKI-1,> 100 µM (inactive)
same,GI50,OVCAR-5,> 100 µM (inactive)
same,GI50,SR,> 100 µM (inactive)
same,GI50,HCC 2998,> 100 µM (inactive)
same,GI50,SK-MEL-28,> 100 µM (inactive)
same,GI50,CCRF-CEM,> 100 µM (inactive)
same,GI50,SF-295,> 100 µM (inactive)
same,GI50,DLD-1,> 100 µM (inactive)
same,GI50,HCT-116,> 100 µM (inactive)
same,GI50,SNB-19,> 100 µM (inactive)
same,GI50,MOLT-4,> 100 µM (inactive)
same,GI50,RXF 393,> 100 µM (inactive)
same,GI50,DMS-273,> 100 µM (inactive)
same,GI50,Malme-3M,> 100 µM (inactive)
same,GI50,LOX IMVI,> 100 µM (inactive)
same,GI50,RPMI-8226,> 100 µM (inactive)
same,GI50,SN12C,> 100 µM (inactive)
same,GI50,SK-OV-3,> 100 µM (inactive)
same,GI50,M19-MEL,> 100 µM (inactive)
same,GI50,COLO 205,> 100 µM (inactive)
same,GI50,IGROV-1,> 100 µM (inactive)
same,GI50,A498,> 100 µM (inactive)
same,GI50,HOP-92,> 100 µM (inactive)
same,GI50,UO-31,> 100 µM (inactive)
same,GI50,NCI-H522,> 100 µM (inactive)
same,GI50,NCI-H226,> 100 µM (inactive)
same,GI50,SNB-75,> 100 µM (inactive)
same,GI50,DMS-114,> 100 µM (inactive)
same,GI50,HL-60,> 100 µM (inactive)
same,GI50,NCI-H460,> 100 µM (inactive)
same,GI50,SNB-78,> 100 µM (inactive)
same,GI50,KM-20L2,> 100 µM (inactive)
same,GI50,NCI-H23,> 100 µM (inactive)
same,GI50,KM12,> 100 µM (inactive)
same,GI50,EKVX,> 100 µM (inactive)
same,GI50,OVCAR-3,> 100 µM (inactive)
same,GI50,A549,> 100 µM (inactive)
same,GI50,SK-MEL-5,> 100 µM (inactive)
same,GI50,UACC-257,> 100 µM (inactive)
same,GI50,LXFL 529,> 100 µM (inactive)
same,GI50,M14,> 100 µM (inactive)
same,GI50,K562,> 100 µM (inactive)
same,GI50,SF-268,> 100 µM (inactive)
same,GI50,TK-10,> 100 µM (inactive)
same,GI50,OVCAR-8,> 100 µM (inactive)
same,GI50,OVCAR-4,> 100 µM (inactive)
same,GI50,HCT-15,> 100 µM
same,GI50,XF498,> 100 µM (inactive)
same,GI50,SK-MEL-2,> 100 µM (inactive)
same,GI50,SW-620,> 100 µM (inactive)
same,GI50,HOP-18,> 100 µM (inactive)
same,GI50,HT-29,> 100 µM (inactive)
same,GI50,UACC-62,> 100 µM (inactive)
same,GI50,ACHN,> 100 µM (inactive)
same,GI50,SF-539,> 100 µM (inactive)
